Data: US9476883B2, “Cellular recognition conjugates and methods of use for the histological analysis of cancer tissue using MALDI-MS imaging” (GEORGIA STATE UNIVERSITY RESEARCH FOUNDATION, priority 2011, dated 2016)
“Also recorded” adds a separate entry of the source.

Experiments:
[1] = test system: renal cell carcinoma tissue; assay: MALDI-IMS of alcohol fixed (UMFIX/Sakura) renal cell carcinoma tissue exposed to the imaging agent; format: binding
Text: FIG. 4 depicts the MALDI-IMS of a renal cell carcinoma tissue sample exposed to the imaging agent of Example 3. FIG. 5 depicts the same tissue sample stained with Sakura/UMFx alcohol.
These red pixels correlate to the MALDI peaks in the spectra shown in FIG. 1 and the color intensity is related to peak abundance as shown in the expression scale. Peaks were obtained in the absence of any chemical matrix. […] As such, this provides a method for probing tumor tissue microarrays prepared from alcohol or formalin fixed tissues.

[2] = test system: cells expressing sialyl Lewis X antigen; assay: MALDI-IMS imaging of a renal cell carcinoma tissue slice incubated with the imaging agent; format: binding; conditions: fresh-frozen renal tissue with tumor and normal regions, 7 μm slice, 2 ng/μl in methanol, overnight at 4° C., no matrix
Protocol: A tissue slice containing renal cell carcinoma was immunostained (mouse monoclonal antibody, GenWay Biotech San Diego, Calif.) that expressed regions coincident with the tumor area (dark stained bottom tip area of FIG. 3; confirmed by pathological analysis).
An adjacent tissue slice (7 μm) was placed on a conductive slide and incubated with the imaging agent of Example 3 in 100% methanol (2 ng/μl) in a humid chamber overnight at 4° C. Slides were washed for 5 minutes in PBS followed by brief water wash to remove any unbound material. The slides are placed in a desiccator for 20 minutes and analyzed directly by MALDI-TOF (no matrix is added) in the reflectron mode using a laser raster width of 200 μm.
The stabilized carbocation is used in this example located and confirm immunological and pathology analysis of this sample that the MALDI indicated region corresponded to the area associated with cancerous tissue.

## COc1ccc(C(SCCC(=O)NCCCn2cc(COc3cc(C(=O)N(C)Cc4c5ccccc5c(CN(C)Cc5ccccc5B(O)O)c5ccccc45)ccc3C(=O)N(C)Cc3c4ccccc4c(CN(C)Cc4ccccc4B(O)O)c4ccccc34)nn2)(c2ccc(OC)cc2)c2ccc(OC)c(C#CCCC(=O)NCc3ccccc3)c2)cc1 [Example 3, [({[({[({2-[(1-{3-[({3-[5-(Benzylamino)-5-oxopent-1-yn-1-yl]-4-methoxyphenyl}bis(4-methoxyphenyl)methyl)thio]propanamido}prop-3-yl)-1H-1,2,3-triazol-4-yl]methoxy}terephthaloyl)bis(methylazanediyl)]bis(methylene)}bis(anthracene-10,9-diyl))bis(methylene)]bis(methylazanediyl)}bis(methylene))bis(2,1-phenylene)]-diboronic acid]
[1]
  binding of the imaging agent to alcohol fixed tumor tissue: affixed to the cell surface; also recorded: capable of binding to alcohol fixed renal tissues
[2]
  binding of the imaging agent to tissue, detected as stabilized carbocation in MALDI-IMS: bound only to the cells expressing sialyl Lewis X antigen
